Data from patent US11039995B2, “Topical compositions for reducing the effects of aging” (Samson Pharma, LLC, priority 2013, dated 2021).

Tests used:
[1] = cited from earlier work
skin of albino rabbits = experiment: Acute dermal irritation/corrosion (OECD 404), single topical 4-hour application; assay type: in vivo
Description: A study was conducted based upon the following references: OECD 404, Organization for Economic Co-Operation and Development (OECD), Guidelines for the Testing of Chemicals, “Acute Dermal Irritation/Corrosion”, adopted 24 Apr. 2002. ISO 10993-12, 2012, Biological Evaluation of Medical Devices—Part 12: Sample Preparation and Reference Materials. ISO/IEC 17025, 2005. General Requirements for the Competence of Testing and Calibration Laboratories.
The skin of three albino rabbits was prepared for testing by clipping the skin of the trunk free of hair at the application sites within 24 hours of the test. The sites of application were not abraded deliberately or accidentally during preparation. Tamibarotene was administered at dose levels of 0.02%, 0.04%, and 0.08% in 60% DMSO. The animals were treated by introducing each dose level (0.5 ml) under gauze patches at individual application sites. The control (0.5 ml of 60% DMSO) was applied to a fourth site.
As it was suspected that tamibarotene might produce severe irritancy/corrosion, a single animal test was initially employed. Test patches of each dose level and control were applied. After three minutes, the skin sites were examined by gently lifting the bandage to examine the skin without bandage removal. […] If a corrosion effect was observed after three minutes or one hour, the test was to be immediately terminated.
Because an irritation or corrosive effect was not observed in the initial test after one hour, the response was confirmed using two additional animals dosed with each dose level and control at individual application sites for four hours. At the end of the exposure period, the wrapping was removed from and the skin washed with USP sterile Water for Injection (SWFI) to remove any test substance still remaining. […] Observations were scored according to the Draize Scale for Scoring Skin Reactions.

[2] = clinical trials; cited from earlier work
[3] = test system: promyelocytic leukemia cells; details: relative to all-trans retinoic acid; cited from earlier work

| Structure (SMILES) | plasma concentration during daily administration [1] | irritation or corrosive effect after one hour (skin of albino rabbits; initial single animal test, 0.02%, 0.04%, 0.08% in 60% DMSO, after one hour) | serious skin reaction after three minutes (skin of albino rabbits; initial single animal, 0.02%, 0.04%, 0.08% in 60% DMSO, 0.5 ml under gauze patches, examined after three minutes) | primary dermal irritation classification (skin of albino rabbits; single topical 4-hour application, dose levels 0.02%, 0.04%, 0.08% in 60% DMSO) | body weight (skin of albino rabbits; three albino rabbits, during the study) | signs of erythema or edema (Draize Scale) (skin of albino rabbits; three rabbits, 4-hour exposure, 0.02%, 0.04%, 0.08% in 60% DMSO, observed 60 minutes, 24, 48, 72 hours after bandage removal) | adverse side effects compared to ATRA [2] | potency as an inducer of differentiation compared to ATRA [3] |
| --- | --- | --- | --- | --- | --- | --- | --- | --- |
| CC1(C)CCC(C)(C)c2cc(NC(=O)c3ccc(C(=O)O)cc3)ccc21 [tamibarotene, Benzoic acid,4-[[(5,6,7,8-tetrahydro-5,5,8,8-tetramethyl-2-naphthalenyl)amino]carbonyl]—] | sustains plasma level | not observed | no serious skin reaction was observed | non-irritant | gained weight | None of the test sites presented any signs of erythema or edema | milder | several times more potent |
| CC1=C(/C=C/C(C)=C/C=C/C(C)=C/C(=O)O)C(C)(C)CCC1 [ATRA, all-trans retinoic acid] | declines considerably | – | – | – | – | – | – | – |
